Assay results as given in paper PMC10472371, “Discovery of E2730, a novel selective uncompetitive GAT1 inhibitor, as a candidate for anti‐seizure medication” (Epilepsia Open, 2023).

Assays:
[1] = system: 6 Hz-44 mA psychomotor seizure mice; test: Pharmaco-resistant 6 Hz-44 mA psychomotor seizures in mice; type: in vivo, mouse; settings: Mus musculus; oral, 1 hour before electrostimulation, ddY mice; read-out: ED50 (95% CI), 6 Hz-44 mA psychomotor seizures
Description: Psychomotor seizures were stimulated by applying currents (44 mA, 6 Hz, 0.2 millisecond rectangular pulse width, 3‐second duration each) via a corneal electrode (SEN‐7203; Nihon Kohden). E2730 (5–50 mg/kg), levetiracetam (Tokyo Chemical Industry; 20–200 mg/kg), or vehicle was orally administered to ddY mice (male, 5 weeks old; Japan SLC Inc.) 1 hour before electrostimulation. […] Behavioral seizures observed in mice were classified into the following four types: stun, forelimb clonus, twitching of the vibrissae, and Straub‐tail.

[2] = system: Fmr1 KO mice; test: Audiogenic seizures in Fmr1 knockout mice (fragile X syndrome model); type: in vivo; settings: Mus musculus, oral, 1 hour before audio stimulation, read-out: ED50 (95% CI) for tonic-clonic seizures, audiogenic seizures
Description: Fragile X syndrome (FXS) is the most common single‐gene cause of autism spectrum disorder, typically due to mutations in the FMR1 gene; 10–18% of patients with FXS experience seizures.[8] The Fmr1 knockout (KO) mouse is an established animal model for FXS. E2730 (2.5–300 mg/kg) or vehicle was orally administered to Fmr1 KO mice (male, 20–27 days postnatal; Jackson Laboratory) 1 hour prior to drug evaluation. The mice were placed in a sound‐attenuating acoustic chamber and acclimated for 5 minutes and exposed to an audio stimulation (110 dB, 60‐second duration), and the behavior of the stimulated mice was video recorded and monitored for tonic–clonic seizures.

[3] = system: brain synaptosomal membranes of GAT1-deficient mice; test: [3H]E2730 binding in GAT1-deficient mouse brain; settings: 200 nM [3H]E2730
Description: Synaptosomal membrane extract was prepared from homozygous γ‐aminobutyric acid (GABA) transporter 1 (GAT1) KO (Homo), heterozygous GAT1 KO (Hetero), and the littermate wild‐type (WT) mice (male, 10 weeks old) using the same approach as described above. Synaptosomal membrane extract (0.4 mg protein/tube) was incubated with 200 nM [^3H]E2730 for 120 minutes at 4°C. Non‐specific binding was defined as the residual binding observed in the presence of 1 mM unlabeled E2730. The radioactivity of the synaptosome‐bound radioligand was measured in the same way as described above.

[4] = target: T1, hGAT3 (Homo sapiens, UniProt P48066); test: [3H]GABA uptake in hGAT3 stably expressing HEK293 cells; type: cell-based; settings: 50 μM [3H]GABA
T1 construct: expressed in transfected cells; host or cells: HEK293
T1 sequence (P48066 1-632): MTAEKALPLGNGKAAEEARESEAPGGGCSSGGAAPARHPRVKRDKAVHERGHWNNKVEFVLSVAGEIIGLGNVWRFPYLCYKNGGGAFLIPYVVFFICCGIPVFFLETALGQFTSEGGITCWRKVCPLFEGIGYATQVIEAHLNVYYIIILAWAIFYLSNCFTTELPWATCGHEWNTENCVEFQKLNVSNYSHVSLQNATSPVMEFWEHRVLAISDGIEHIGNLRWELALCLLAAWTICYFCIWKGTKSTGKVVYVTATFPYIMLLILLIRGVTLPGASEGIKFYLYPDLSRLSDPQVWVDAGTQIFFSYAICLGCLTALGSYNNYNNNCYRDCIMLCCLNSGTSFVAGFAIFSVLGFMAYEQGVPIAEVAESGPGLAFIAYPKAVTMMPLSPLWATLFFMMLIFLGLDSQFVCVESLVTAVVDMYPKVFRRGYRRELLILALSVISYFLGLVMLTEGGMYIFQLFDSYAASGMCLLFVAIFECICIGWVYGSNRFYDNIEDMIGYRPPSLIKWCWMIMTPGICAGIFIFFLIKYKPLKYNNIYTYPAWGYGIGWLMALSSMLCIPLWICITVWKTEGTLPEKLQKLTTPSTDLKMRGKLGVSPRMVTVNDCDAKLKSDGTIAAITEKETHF
Description: (§1) HEK293 cells stably expressing human GAT1 (hGAT1), GAT2 (hGAT2), GAT3 (hGAT3), or betaine/GABA transporter 1 (hBGT‐1) were plated onto 96‐well microtiter plates at a density of 4.0 × 10^4 cells/well in Dulbecco's Modified Eagle's Medium (DMEM, containing 10% fetal bovine serum, 100 units/mL penicillin, 100 μg/mL streptomycin, 1% non‐essential amino acid solution, and 25 mM HEPES) and incubated overnight at 37°C in a 5% CO2 atmosphere. After washing the cells with Hanks’ balanced salt solution (HBSS, containing 140 mg/L CaCl2, 100 mg/L MgCl2, 20 mM HEPES, and 10 mM NaOH), E2730 (0.0128–1000 μM) was added to the plate. Following the addition of 50 μM [^3H]GABA, cells were incubated for 5 minutes at 37°C in a 5% CO2 atmosphere and then washed with cold HBSS. Washed cells were incubated in a scintillator for 1 hour at room temperature, followed by radioactivity measurements using a liquid scintillation counter.

[5] = target: T2, hBGT-1 (Homo sapiens, UniProt P48065); test: [3H]GABA uptake in hBGT-1 stably expressing HEK293 cells; type: cell-based; settings: hBGT-1 HEK293 cells, 50 μM [3H]GABA
T2 construct: expressed in transfected cells; host or cells: HEK293
T2 sequence (P48065 1-614): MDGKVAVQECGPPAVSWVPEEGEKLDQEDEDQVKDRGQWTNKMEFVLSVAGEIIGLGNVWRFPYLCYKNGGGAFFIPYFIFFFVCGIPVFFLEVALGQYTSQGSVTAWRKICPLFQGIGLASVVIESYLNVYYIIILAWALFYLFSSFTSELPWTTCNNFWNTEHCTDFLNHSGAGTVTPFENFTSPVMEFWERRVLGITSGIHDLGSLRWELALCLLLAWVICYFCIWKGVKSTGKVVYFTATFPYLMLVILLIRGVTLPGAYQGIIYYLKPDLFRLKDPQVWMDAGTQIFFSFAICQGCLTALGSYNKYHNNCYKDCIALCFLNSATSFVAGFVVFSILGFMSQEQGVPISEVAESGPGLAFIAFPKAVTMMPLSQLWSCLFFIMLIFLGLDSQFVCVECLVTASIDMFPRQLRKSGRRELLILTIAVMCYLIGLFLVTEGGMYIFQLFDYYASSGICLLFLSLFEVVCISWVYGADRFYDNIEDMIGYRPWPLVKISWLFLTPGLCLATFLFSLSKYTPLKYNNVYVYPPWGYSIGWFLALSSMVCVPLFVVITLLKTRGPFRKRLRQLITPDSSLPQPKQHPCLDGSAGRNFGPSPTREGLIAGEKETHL
Description: as §1

Question: NS(=O)(=O)N[C@H]1c2c(F)cc(F)cc2CC1(F)F [E2730] was tested. Which ED50 [1] did it give?
Answer: 17 mg/kg

Question: What about the ED50 [2] of the same molecule?
Answer: 17.1 mg/kg

Question: And the “proportion of bound [3H]E2730 relative to WT mice” value ([3]; heterozygous GAT1 KO (Hetero) mice)?
Answer: 54.0%

Question: And the “proportion of bound [3H]E2730 relative to WT mice” value ([3]; homozygous GAT1 KO (Homo) mice)?
Answer: 8.0%

Question: What about the IC50 [4] of the same molecule?
Answer: > 1000 µM

Question: What about the IC50 [5] of the same molecule?
Answer: 890 µM
